Legend:
[1] = tested on: Erysiphe graminis f. sp. tritici; assay: Test A: wheat powdery mildew, preventive spray on wheat seedlings, visual disease rating; assay type: in vivo; conditions: Blumeria graminis, 192 h; for pest or weed control at 40 ppm: 40 ppm (compound number followed by *)
How it was run: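 Acetone/water (50/50) suspension with 250 ppm surfactant sprayed to run-off on wheat seedlings (200 ppm ≈ 500 g/ha); inoculated next day with E. graminis spore dust. Incubated 8 days at 20° C, then visually rated 0–100% disease control versus untreated controls; tests at 200 ppm or 40 ppm.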

[2] = tested on: Puccinia recondite f. sp. tritici; assay: Test B: wheat leaf rust, preventive spray on wheat seedlings, visual disease rating; assay type: in vivo; conditions: 192 h; for pest or weed control at 40 ppm: 40 ppm (compound number followed by *)
How it was run: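 Wheat seedlings were sprayed to run-off with compound suspension, 200 ppm (≈500 g/ha) or 40 ppm where marked, containing surfactant in acetone/water. Inoculation with Puccinia recondita spores followed one day later, then 24 h in saturated humidity at 20° C and 7 days at 20° C. Disease control was rated visually, 0–100% versus controls.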

Septoria tritici = assay: Test C: wheat leaf blotch, preventive spray on wheat seedlings, visual disease rating; assay type: in vivo; conditions: Zymoseptoria tritici, 504 h; for pest or weed control at 40 ppm: 40 ppm (compound number followed by *)
How it was run: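 Wheat seedlings sprayed to run-off with compound in acetone/water plus 250 ppm surfactant at 200 ppm (≈500 g/ha), or 40 ppm where marked; inoculated with Septoria tritici next day. Held saturated at 20 °C for 48 h, then 19 days at 20 °C; disease control rated visually 0–100 versus controls.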

Septoria nodorum = assay: Test D: wheat glume blotch, preventive spray on wheat seedlings, visual disease rating; assay type: in vivo; conditions: Parastagonospora nodorum, 216 h; for pest or weed control at 40 ppm: 40 ppm (compound number followed by *)
How it was run: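 Compounds in 3% acetone, then 50/50 acetone–water with 250 ppm Trem 014, sprayed to run-off at 200 ppm (500 g/ha; some at 40 ppm) one day before spore inoculation. Held 48 h saturated at 20 °C, then 7 days at 20 °C; visual rating as % disease control vs untreated (0–100).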

Alternaria solani = assay: Test E: tomato early blight, preventive spray on tomato seedlings, visual disease rating; assay type: in vivo; conditions: Alternaria solani, 168 h; for pest or weed control at 40 ppm: 40 ppm (compound number followed by *)
How it was run: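 Seedlings sprayed to run-off with compound in acetone/water plus 250 ppm Trem 014 (200 ppm ≈ 500 g/ha), inoculated with spores next day. Held 48 h saturated at 27 °C, then 5 days at 20 °C; visual rating 0–100% disease control relative to controls.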

Botrytis cinerea = assay: Test F: tomato botrytis, preventive spray on tomato seedlings, visual disease rating; assay type: in vivo; conditions: Botrytis cinerea, 120 h; for pest or weed control at 40 ppm: 40 ppm (compound number followed by *)
How it was run: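 Tomato seedlings sprayed to run-off with compound suspended in acetone/water (50/50) plus 250 ppm Trem 014, at 200 ppm (≈500 g/ha) or 40 ppm where marked. Inoculated next day with B. cinerea spores, 48 h saturated atmosphere at 20 °C, then 3 days at 24 °C. Visual rating, 0–100% disease control relative to controls.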

Rhizoctonia oryzae = assay: Test G: turf brown patch, preventive spray on creeping bent grass seedlings, visual disease rating; assay type: in vivo; conditions: Waitea circinata, in Agrostis stolonifera, 120 h, 200 ppm, 100 = 100% disease control, 0 = no control
[3] = 200 ppm, 100 = 100% disease control, 0 = no control

melting point [°C] | SMILES | pest or weed control at 200 ppm [1, 3] [%] | pest or weed control at 200 ppm [2, 3] [%] | pest or weed control at 200 ppm (Septoria tritici; [3]) [%] | pest or weed control at 200 ppm (Septoria nodorum; [3]) [%] | pest or weed control at 200 ppm (Alternaria solani; [3]) [%] | pest or weed control at 200 ppm (Botrytis cinerea; [3]) [%] | pest or weed control at 200 ppm (Rhizoctonia oryzae) [%] | pest or weed control at 40 ppm [1] [%] | pest or weed control at 40 ppm [2] [%] | pest or weed control at 40 ppm (Septoria tritici) [%] | pest or weed control at 40 ppm (Septoria nodorum) [%] | pest or weed control at 40 ppm (Alternaria solani) [%] | pest or weed control at 40 ppm (Botrytis cinerea) [%]
166 to 167 | COc1cc(OC)cc(-c2c(C(C)(C)O)cnc(C)c2-c2c(F)cc(F)cc2F)c1 [Compound 44, 4-(3,5-dimethoxyphenyl)-α,α,6-trimethyl-5-(2,4,6-trifluorophenyl)-3-pyridinemethanol] | 99 | 100 | 100 | 99 | 100 | 99 | 86 | – | – | – | – | – | –
131 to 133 | COc1cc(OC)cc(-c2c(CC#N)cnc(C)c2-c2c(F)cc(F)cc2F)c1 [Compound 124, 4-(3,5-dimethoxyphenyl)-6-methyl-5-(2,4,6-trifluorophenyl)-3-pyridineacetonitrile] | – | – | – | – | – | – | – | 100 | 100 | 99 | 100 | 100 | 100
123 to 127 | COc1cc(OC)cc(-c2c(-c3ccccc3F)cnc(C)c2-c2c(F)cc(F)cc2F)c1 [Compound 89, 4-(3,5-dimethoxyphenyl)-5-(2-fluorophenyl)-2-methyl-3-(2,4,6-trifluorophenyl)pyridine] | – | – | – | – | – | – | – | 100 | 100 | 97 | 99 | 99 | 100
159 to 165 | COc1cc(OC)c(Cl)c(-c2c(CC#N)cnc(C)c2-c2c(F)cc(F)cc2F)c1 [Compound 133, 4-(2-chloro-3,5-dimethoxyphenyl)-6-methyl-5-(2,4,6-trifluorophenyl)-3-pyridineacetonitrile] | – | – | – | – | – | – | – | 98 | 100 | 100 | 95 | 99 | 100

From patent publication US20110092544A1, “FUNGICIDAL PYRIDINES” (E.I. DU PONT DE nemours and company, priority 2008, published 2011)
